Experimental data reported in PMC3161826 (Journal of nuclear medicine : official publication, Society …, 2010).
Several values for one entry are separate records, joined by “and”; a condition that tells them apart may be missing. Equal entries are not always repeated. Where two headings read alike, the source gives them in different places.

Assays:
[1] = biological target: 18-kDa translocator protein (TSPO); assay: Competition binding assay with 3H-PK11195 in human brain tissue membranes; conditions: for Ki ratio of LAB to HAB / Ki: brain tissue donors B1–B15; for Ki: read-out: Ki, MABs (single-site model), mixed-affinity binders, mean ± SEM
[2] = biological target: T1, 18-kDa translocator protein (TSPO) (Homo sapiens, UniProt P30536); assay: as above
[3] = biological target: T1, 18-kDa translocator protein (TSPO); format: binding; conditions: for Ki: unlabeled PBR28 50 nM in each well
[4] = biological target: 18-kDa translocator protein (TSPO); conditions: brain tissue donors B1–B15; ref Owen et al. ([6]); cited from earlier work
[5] = test system: 18-kDa translocator protein (TSPO); format: binding, human; conditions: platelets, healthy volunteers
[6] = biological target: T1, 18-kDa translocator protein (TSPO); format: binding; conditions: read-out: Ki, HABs; platelets, healthy volunteers P1–P13; single class of high-affinity sites, 9 of 13
Target sequence in this assay (P30536 2-169): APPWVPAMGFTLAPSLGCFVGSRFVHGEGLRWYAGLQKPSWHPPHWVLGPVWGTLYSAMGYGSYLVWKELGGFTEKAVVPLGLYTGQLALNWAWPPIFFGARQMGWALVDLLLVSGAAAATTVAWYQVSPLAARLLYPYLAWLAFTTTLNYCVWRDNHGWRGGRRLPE

[7] = read-out: Ki, HABs, high-affinity binders, brain tissue donors B1–B15, mean ± SEM
[8] = read-out: Ki, LABs, low-affinity binders, brain tissue donors B1–B15, mean ± SEM

Difference in affinity between HABs and LABs ([1]; brain tissue)	SMILES	Ki ratio of LAB to HAB [1]	Ki [2, 7] [nM]	Ki [2, 8] [nM]	Ki [1] [nM]	other results
	COc1ccc(OC)c(CN(C(=O)CF)c2ccccc2Oc2ccccc2)c1 [PBR06]	17	8.6 ± 2	149 ± 46.6		
	COc1ccccc1CN(C(C)=O)c1cnccc1Oc1ccccc1 [PBR28, N-{[2-(methyloxy)phenyl]methyl}-N-[4-(phenyloxy)-3-pyridinyl]acetamide]					Mean fraction of high-affinity sites in MABs ([1]; brain tissue, donors with no history of neurologic disease): 58% ± 6.6; Fraction of high-affinity sites in MABs, range of values ([1]; brain tissue, range across MAB subjects): 38% to 83; Ki ([2]; Ki, LABs, brain tissue, donors with no history of neurologic disease (B14–B33), single class of low-affinity receptors, 4 of 20): 237 ± 35 nM; Ki ([2]; read-out: Ki, HABs, brain tissue, donors with no history of neurologic disease (B14–B33), single class of high-affinity receptors, 9 of 20): 2.9 ± 0.26 nM; Ki ratio of LAB to HAB [4]: 55; Reduction (%) in specific signal after block with PBR28 (50 nM), HABs ([3]; PBR28 50 nM, 3H-PK11195 specific signal, HABs, 60 min, 0.05 µM): 70% and 69.0 ± 4.6 (n = 4) %; Reduction (%) in specific signal after block with PBR28 (50 nM), LABs ([3]; PBR28 50 nM, 3H-PK11195 specific signal, LABs): 21% and 21.2 ± 4.8 (n = 4) %; Occupancy of binding sites in HABs ([3]; PBR28 at 50 nM, expected occupancy): approximately 94%; receptor occupancy at 0.05 µM ([3]; read-out: Occupancy of binding sites in LABs): ~21%; Mean fraction of high-affinity sites in MABs [5]: 63% ± 9.8; Ki [6]: 3.1 ± 0.57 nM
~ 4 fold and < 5 fold	CCN(CC)C(=O)Cc1c(-c2ccc(OC)cc2)nn2c(C)cc(C)nc12 [DPA713]					
~ 4 fold and ~ 5 fold and < 5 fold	COc1ccc(OC)c(CN(C(C)=O)c2cc(F)ccc2Oc2ccccc2)c1 [DAA1106]	4.7	2.8 ± 0.3	13.1 ± 1.3	4.8 ± 0.4	

SMILES	Difference in affinity between HABs and LABs ([1]; brain tissue)	Ki ratio of LAB to HAB [1]	Ki [2, 7] [nM]	Ki [2, 8] [nM]	Ki [1] [nM]	other results
CCN(CC)C(=O)Cc1c(-c2ccc(OCCCF)cc2)nc2ccc(Cl)cn12 [PBR111]	~ 4 fold and < 5 fold	4.0	15.6 ± 3.7	61.8 ± 10.7	30.3 ± 4.1	Ki ([3]; read-out: Ki after block with PBR28 (50 nM), LABs, low-affinity binders): 51.7 ± 12.2 nM; Ki ([3]; read-out: Ki after block with PBR28 (50 nM), MABs, mixed-affinity binders): 54.4 ± 5.3 nM
